Patent publication US20250325712A1, “TARGETING LIGANDS FOR DISEASE-TARGETED IMAGING AGENTS AND METHODS OF USE THEREFOR” (Curadel Surgical Innovations, Inc., priority 2024, published 2025)

Experiment: Stability of dyes in 37° C. buffered fetal bovine serum (normalized absorbance and absorbance spectra over time)
Type: in vitro ADME
Conditions: compared to ZW800-1
Method: The normalized absorbance of ZW800-1 and ZW700-1c in 37° C. buffered FBS, pH 7.4 over time from 0 to 60 hours are shown in FIGS. 2-4.

Compound: CC1(C)C(/C=C/C(=C/C=C2/N(CCC[N+](C)(C)C)c3ccc(S(=O)(=O)[O-])cc3C2(C)C)c2ccc(CCC(=O)[O-])cc2)=[N+](CCC[N+](C)(C)C)c2ccc(S(=O)(=O)[O-])cc21 [ZW700-1c]
- stability: normalized absorbance over time (37° C. buffered FBS, pH 7.4, 0 to 60 hours): extreme stability
- stability over time: changes in absorption spectra during metabolism in warm serum (warm serum (37° C. buffered FBS, pH 7.4, 0 to 48 hours)): high stability
